Results from the NIST ThermoML archive (doi:10.1021/je050021e).
Numbers after ± are expanded uncertainties.

How the values were obtained:
[1] = xn = mol fraction of the nth substance listed; settings: Liquid, x2 = 0
[2] = Liquid

| Compound | viscosity ([1]; 303.15 K, 101 kPa) [mPa·s] | viscosity ([1]; 313.15 K, 101 kPa) [mPa·s] | viscosity ([1]; 323.15 K, 101 kPa) [mPa·s] | viscosity ([1]; 333.15 K, 101 kPa) [mPa·s] | viscosity ([1]; 343.15 K, 101 kPa) [mPa·s] | viscosity ([2]; 303.15 K, 101 kPa) [mPa·s] | viscosity ([2]; 313.15 K, 101 kPa) [mPa·s] | viscosity ([2]; 323.15 K, 101 kPa) [mPa·s] | viscosity ([2]; 333.15 K, 101 kPa) [mPa·s] | viscosity ([2]; 343.15 K, 101 kPa) [mPa·s] | also measured |
| --- | --- | --- | --- | --- | --- | --- | --- | --- | --- | --- | --- |
| O [water] + COCCOCCOCCOC | 0.89 ± 0.022 | 0.6531 ± 0.017 | 0.547 ± 0.015 | 0.466 ± 0.013 | 0.4049 ± 0.011 | – | – | – | – | – | mass density ([1]; 323.15 K, 101.3 kPa): 988.04 ± 0.09 kg/m3; mass density ([1]; 333.15 K, 101.3 kPa): 983.12 ± 0.09 kg/m3; mass density ([1]; 343.15 K, 101.3 kPa): 977.77 ± 0.09 kg/m3 |
| COCCOCCOCCOC [2,5,8,11-tetraoxadodecane] | – | – | – | – | – | 1.77 ± 0.04 | 1.48 ± 0.04 | 1.26 ± 0.03 | 1.08 ± 0.03 | 0.945 ± 0.025 | mass density ([2]; 303.15 K, 101.3 kPa): 975.86 ± 1 kg/m3; mass density ([2]; 313.15 K, 101.3 kPa): 966.36 ± 0.99 kg/m3; mass density ([2]; 323.15 K, 101.3 kPa): 956.85 ± 0.98 kg/m3; mass density ([2]; 333.15 K, 101.3 kPa): 947.32 ± 0.97 kg/m3; mass density ([2]; 343.15 K, 101.3 kPa): 937.72 ± 0.96 kg/m3 |
| CC(=O)N1CCOCC1 [4-acetylmorpholine] | – | – | – | – | – | 7.1 ± 0.2 | 5.18 ± 0.15 | 3.96 ± 0.12 | 3.12 ± 0.1 | 2.55 ± 0.08 | mass density ([2]; 298.15 K, 101 kPa): 1110.33 ± 0.61 kg/m3; viscosity ([2]; 298.15 K, 101 kPa): 8.48 ± 0.23 mPa·s; mass density ([2]; 303.15 K, 101 kPa): 1106 ± 0.6 kg/m3; mass density ([2]; 313.15 K, 101 kPa): 1097.35 ± 0.6 kg/m3; mass density ([2]; 323.15 K, 101 kPa): 1088.74 ± 0.59 kg/m3; mass density ([2]; 333.15 K, 101 kPa): 1080.14 ± 0.59 kg/m3; mass density ([2]; 343.15 K, 101 kPa): 1071.55 ± 0.58 kg/m3 |
| O [water] + CC(=O)N1CCOCC1 | 0.7976 ± 0.026 | 0.6531 ± 0.022 | 0.547 ± 0.019 | 0.466 ± 0.017 | 0.4049 ± 0.015 | – | – | – | – | – | viscosity ([1]; 298.15 K, 101 kPa): 0.8903 ± 0.029 mPa·s; mass density ([1]; 323.15 K, 101 kPa): 988.04 ± 0.53 kg/m3; mass density ([1]; 333.15 K, 101 kPa): 983.12 ± 0.53 kg/m3; mass density ([1]; 343.15 K, 101 kPa): 977.77 ± 0.52 kg/m3 |
